{"source": "patent US11672771B2", "about": "“Beta-alethine, immune modulators, and uses thereof” (AxImmune, Inc., priority 2016, dated 2023)", "key": {"multiple myeloma": {"tested_on": "multiple myeloma", "conditions": "multiple myeloma (Benson et al., 2012); cited from earlier work"}, "[1]": {"tested_on": "CD4+ or CD8+ T cells that expressed PD-1, Lag3, or Tim3", "assay": "Checkpoint inhibitor expression and T cell percentages in blood 48 hours after one s.c. injection of β-alethine in Cloudman melanoma mice", "type": "in vivo, DBA mice", "procedure": "It was hypothesized that β-alethine could affect checkpoint inhibitors expression in vivo in tumor bearing animals. […] As a baseline, blood from each animal was taken (“Cloudman preBLT”). Mice then were treated with one subcutaneous (s.c.) injection of 30 mg/kg β-alethine. 48 hours after receiving the s.c. injection of β-alethine, blood was taken (“Cloudman postBLT”). […]"}, "[2]": {"tested_on": "Cloudman melanoma cancer cell line", "assay": "Tumor growth with β-alethine, anti-PD-1 or both (concurrent or sequential) in Cloudman melanoma mice", "type": "in vivo", "conditions": "for tumor growth (tumor size): vs PBS, not statistically significant", "procedure": "After confirming tumor growth, mice were randomized into the treatment groups listed in Table 4. n=10 mice in the Low Dose, High Dose, q14, untreated, and PBS groups; n=5 mice in PD-1 and BLT/PD-1 groups.\nTumor growth was measured 3 times a week. […] In the PBS treated group, there likely was an artificially low reading in the PBS group on day 23. A repeat reading of tumor size at day 25 confirmed the original trajectory. […] In addition, by day 25, the cancers in all these groups were growing at rates similar to the PBS or untreated control.\nIn order to further examine this dramatic result, long-term immunity after relapse was determined. In the mice treated with three doses of PD-1 alone at days 15, 18, and 21, tumor size increased through day 29 until the average size was almost 50 mm^2. […] At day 29, mice in the single agent anti-PD-1 treated group received a dose of 30 mg/kg β-alethine subcutaneously, and then weekly thereafter. […] Thus, in total, 9 of 10 mice in either the combination treatment group or the anti-PD-1 rescued with β-alethine group had complete regression of their tumors."}, "[3]": {"tested_on": "human peripheral blood mononuclear cells", "conditions": "polarized Th1 response; cited from earlier work"}, "lymphoma": {"tested_on": "lymphoma", "conditions": "single agent; cited from earlier work"}, "MT-1 tumor xenograft": {"tested_on": "MT-1 tumor xenograft", "conditions": "cited from earlier work"}, "[4]": {"tested_on": "Cloudman melanoma cancer cell line", "assay": "Tumor size after s.c. and intratumoral β-alethine in mice with established Cloudman melanoma", "type": "in vivo, DBA mice", "procedure": "At 38 days after tumor cell injection, the tumors were 17, 25 and 32 mm^2. At 38, 46, and 52 days after tumor cell injection, mice were treated with s.c. injections between the shoulder blades (distal to the tumor) of 30 mg/kg β-alethine in sterile saline (each s.c. injection of β-alethine is indicated by triangles in FIG. 2). Tumor size was monitored after each injection. […] However, the other two mice were then treated with β-alethine at 30 mg/kg intratumorally (i.t.) on day 55 post-tumor cell injection.\nFurther, when β-alethine was injected directly into the tumors, animals that previously had not responded or not fully responded via s.c. injection now responded, included apparent complete response."}, "NS-1 mouse myeloma": {"tested_on": "NS-1 mouse myeloma", "conditions": "repeated administration as monotherapy soon after inoculation with relatively low doses of tumor; cited from earlier work"}, "Cloudman S-91 melanomas": {"tested_on": "Cloudman S-91 melanomas", "conditions": "melanomas already established; cited from earlier work"}, "[5]": {"tested_on": "monocytes expressing PD-L1", "assay": "Ex vivo treatment of dog white blood cells, PD-L1 on monocytes by flow cytometry", "type": "cell-based", "conditions": "0-1000 uM, 24 hours incubation, autologous serum; in some of the dogs (three healthy, three with cancer)", "procedure": "In this study, white blood cells and serum were isolated from three healthy dogs and three dogs with cancer. Two dogs had osteosarcoma (Cancer_1 and Cancer_2 in FIG. 5) and one dog had melanoma (Cancer_3 in FIG. 5). Isolated white blood cells were grown in culture with autologous dog serum and varying doses of β-alethine (0-1000 uM). After 24 hours of incubation with β-alethine, monocytes were isolated and were examined for PD-L1 expression using flow cytometry analysis and a canine-specific anti-PD-L1 antibody. […] Further is documents cross species activity of BA. Current human clinical trials with immune checkpoint inhibitors also include antibodies antagonistic to PD-L1. Thus, β-alethine could also be used synergistically with anti-PD-L1 therapies."}, "[6]": {"conditions": "in vivo; cited from earlier work"}, "[7]": {"conditions": "Post-, 48 hours after β-alethine s.c."}, "[8]": {"conditions": "Post-β-alethine, blood 48 hours after one s.c. injection of 30 mg/kg"}}, "note": "Entries after “also recorded” stand apart in the source; their conditions may differ."}
{"compound": "lirlumab: anti-KIR antibody (Innate Pharma)", "values": [{"measurement": "anti-tumor activity", "setting": "multiple myeloma", "result": "demonstrated anti-tumor activity"}]}
{"compound": "IPH2101: anti-KIR antibody (Innate Pharma)", "values": [{"measurement": "anti-tumor activity", "setting": "multiple myeloma", "result": "demonstrated anti-tumor activity"}]}
{"compound": "NCCC(=O)NCCSSCCNC(=O)CCN", "note": "[β-alethine, 3-amino-N-(2-{[2-(3-aminopropanamido)ethyl]disulfanyl}ethyl)propenamide]", "values": [{"measurement": "number of molecule per cell (mean fluorescent intensity MFI) on cells that continued to have checkpoint molecule expression", "setting": "[1]; 48 hours after one s.c. injection of 30 mg/kg vs before", "result": "specific reduction"}, {"measurement": "percentages of CD4 and CD8 T cells expressing PD-1, Lag3, or Tim3", "setting": "[1]; FIG. 1A, 48 hours after one s.c. injection of 30 mg/kg vs before", "result": "reduced percentages"}, {"measurement": "% CD8+ of white blood cells", "setting": "[1]; [7]", "result": 0.9, "unit": "%"}, {"measurement": "CD4-Lag3, percentage of cells expressing checkpoint inhibitor", "setting": "[1]; [7]", "result": 2.1, "unit": "%"}, {"measurement": "CD4-PD1, percentage of cells expressing checkpoint inhibitor", "setting": "[1]; [7]", "result": 4.4, "unit": "%"}, {"measurement": "CD4-Tim3, percentage of cells expressing checkpoint inhibitor", "setting": "[1]; [7]", "result": 1.3, "unit": "%"}, {"measurement": "CD8-Lag3, percentage of cells expressing checkpoint inhibitor", "setting": "[1]; [7]", "result": 0.1, "unit": "%"}, {"measurement": "CD8-PD1, percentage of cells expressing checkpoint inhibitor", "setting": "[1]; [7]", "result": 1.2, "unit": "%"}, {"measurement": "CD8-Tim3, percentage of cells expressing checkpoint inhibitor", "setting": "[1]; [7]", "result": 0.2, "unit": "%"}, {"measurement": "CD4-Lag3+ checkpoint inhibitor expression", "setting": "[1]; [8]", "result": 55, "unit": "MFI"}, {"measurement": "CD4-PD1+ checkpoint inhibitor expression", "setting": "[1]; [8]", "result": 153, "unit": "MFI"}, {"measurement": "CD4-Tim3+ checkpoint inhibitor expression", "setting": "[1]; [8]", "result": 93, "unit": "MFI"}, {"measurement": "CD8-Lag3+ checkpoint inhibitor expression", "setting": "[1]; [8]", "result": 627, "unit": "MFI"}, {"measurement": "CD8-PD1+ checkpoint inhibitor expression", "setting": "[1]; [8]", "result": 259, "unit": "MFI"}, {"measurement": "CD8-Tim3 checkpoint inhibitor expression", "setting": "[1]; [8]", "result": 1283, "unit": "MFI"}, {"measurement": "tumor growth (tumor size)", "setting": "[2]; High dose: 30 mg/kg s.c. once a week from day 15", "result": "delayed tumor growth temporarily"}, {"measurement": "tumor growth (tumor size)", "setting": "[2]; Low dose: 30 ng/kg s.c. once a week from day 15", "result": "delayed tumor growth temporarily"}, {"measurement": "toxicity", "setting": "[2]; low dose or high dose β-alethine alone", "result": "no obvious toxicity was observed"}, {"measurement": "IFN-γ production", "setting": "[3]", "result": "increased IFN-γ production"}, {"measurement": "IL-10 expression", "setting": "[3]", "result": "depressed IL-10 expression"}, {"measurement": "T cell activation and proliferation", "setting": "[3]", "result": "increased T cell activation and proliferation"}, {"measurement": "drug related adverse events", "setting": "lymphoma", "result": "no local or systemic drug related adverse events; also recorded: no drug-related adverse events"}, {"measurement": "tumor size in lymphoma patients not anergic to recall antigens pre-trial", "setting": "lymphoma", "result": "reduction or stabilization in tumor sized in all patients with lymphoma who were not anergic to recall antigens pre-trial; also recorded: shrinkage or stabilization in all patients with lymphoma who were not anergic to recall antigens pre-trial"}, {"measurement": "effectiveness of chemotherapy for late stage breast cancer", "setting": "MT-1 tumor xenograft; adjunct to chemotherapy", "result": "increase effectiveness of chemotherapy"}, {"measurement": "toxicity due to the chemotherapy", "setting": "MT-1 tumor xenograft; adjunct to chemotherapy", "result": "did not increase toxicity due to the chemotherapy"}, {"measurement": "localized tumor growth", "setting": "MT-1 tumor xenograft; breast cancer", "result": "effective in treating localized tumor growth"}, {"measurement": "tumor response of second mouse after intratumoral injection", "setting": "[4]; 30 mg/kg i.t. on day 55 after s.c. injections, seen on day 66", "result": "complete regression of the tumor"}, {"measurement": "tumor size of remaining mouse after series of i.t. injections", "setting": "[4]; 30 mg/kg i.t. on days 55, 68, 82", "result": "decrease in tumor size"}, {"measurement": "start of tumor regression in the remaining mouse", "setting": "[4]; 30 mg/kg i.t. on days 55, 68, 82 after s.c. injections", "result": "~70 day post-tumor cell injection"}, {"measurement": "complete tumor regression after s.c. injections", "setting": "[4]; 30 mg/kg s.c. at days 38, 46, 52, three mice, at day 56 post-tumor cell injection", "result": "one of the mice demonstrated a complete tumor regression"}, {"measurement": "local or systemic side effects", "setting": "[4]; i.t. injections of 30 mg/kg in the mouse", "result": "not associated with any perceivable local or systemic side effects"}, {"measurement": "survival rates", "setting": "NS-1 mouse myeloma", "result": "significantly increased survival rates"}, {"measurement": "percent survival", "setting": "Cloudman S-91 melanomas", "result": "increase the percent survival"}, {"measurement": "percentages of monocytes expressing PD-L1", "setting": "[5]", "result": "reduced the percentages of monocytes expressing PD-L1"}, {"measurement": "toxicity in animals", "setting": "[6]", "result": "non-toxic"}]}
